# Results: the NIST ThermoML archive (doi:10.1021/acs.jced.5b00270)
# Numbers after ± are expanded uncertainties.
# Conditions: Liquid, Capillary tube (Ostwald / Ubbelohde) method
compound,measurement,setting,value
C1CCCCC1 [cyclohexane],viscosity,"303.1 K, 2930 kPa",0.852 ± 0.029 mPa·s
same,viscosity,"305.1 K, 960 kPa",0.801 ± 0.026 mPa·s
same,viscosity,"305.2 K, 140 kPa",0.796 ± 0.027 mPa·s
same,viscosity,"305.2 K, 1960 kPa",0.819 ± 0.027 mPa·s
same,viscosity,"305.2 K, 3940 kPa",0.839 ± 0.028 mPa·s
same,viscosity,"313.8 K, 2920 kPa",0.721 ± 0.025 mPa·s
same,viscosity,"323.7 K, 150 kPa",0.601 ± 0.02 mPa·s
same,viscosity,"323.7 K, 1990 kPa",0.614 ± 0.02 mPa·s
same,viscosity,"323.7 K, 4000 kPa",0.631 ± 0.021 mPa·s
same,viscosity,"324 K, 1020 kPa",0.616 ± 0.021 mPa·s
same,viscosity,"348.9 K, 140 kPa",0.432 ± 0.015 mPa·s
same,viscosity,"348.9 K, 990 kPa",0.44 ± 0.015 mPa·s
same,viscosity,"348.9 K, 2080 kPa",0.445 ± 0.014 mPa·s
same,viscosity,"348.9 K, 3030 kPa",0.451 ± 0.015 mPa·s
same,viscosity,"348.9 K, 3930 kPa",0.449 ± 0.015 mPa·s
same,viscosity,"373.7 K, 970 kPa",0.331 ± 0.011 mPa·s
same,viscosity,"373.7 K, 2020 kPa",0.336 ± 0.011 mPa·s
same,viscosity,"373.7 K, 2930 kPa",0.34 ± 0.011 mPa·s
same,viscosity,"373.7 K, 3960 kPa",0.346 ± 0.011 mPa·s
same,viscosity,"398.1 K, 2000 kPa",0.262 ± 0.0085 mPa·s
same,viscosity,"398.1 K, 4010 kPa",0.27 ± 0.0088 mPa·s
same,viscosity,"398.2 K, 960 kPa",0.258 ± 0.0084 mPa·s
same,viscosity,"398.2 K, 2940 kPa",0.266 ± 0.0087 mPa·s
same,viscosity,"422.4 K, 960 kPa",0.204 ± 0.0066 mPa·s
same,viscosity,"422.5 K, 1970 kPa",0.209 ± 0.0068 mPa·s
same,viscosity,"422.5 K, 2960 kPa",0.214 ± 0.007 mPa·s
same,viscosity,"422.5 K, 3960 kPa",0.216 ± 0.007 mPa·s
same,viscosity,"447.5 K, 1010 kPa",0.165 ± 0.0054 mPa·s
same,viscosity,"447.6 K, 2040 kPa",0.165 ± 0.0055 mPa·s
same,viscosity,"447.7 K, 3010 kPa",0.17 ± 0.0056 mPa·s
same,viscosity,"447.7 K, 4000 kPa",0.174 ± 0.0057 mPa·s
same,viscosity,"473.3 K, 3000 kPa",0.138 ± 0.0046 mPa·s
same,viscosity,"473.4 K, 1930 kPa",0.131 ± 0.0044 mPa·s
same,viscosity,"473.4 K, 3930 kPa",0.139 ± 0.0046 mPa·s
same,viscosity,"497.9 K, 3050 kPa",0.106 ± 0.0036 mPa·s
same,viscosity,"498.1 K, 3980 kPa",0.11 ± 0.0037 mPa·s
same,viscosity,"498.2 K, 3020 kPa",0.106 ± 0.0036 mPa·s
same,viscosity,"498.3 K, 4020 kPa",0.11 ± 0.0037 mPa·s
same,viscosity,"523 K, 3050 kPa",0.0791 ± 0.0028 mPa·s
same,viscosity,"523 K, 3970 kPa",0.0856 ± 0.003 mPa·s
CCCCCCCCCC [decane],viscosity,"303.1 K, 3970 kPa",0.828 ± 0.028 mPa·s
same,viscosity,"303.2 K, 960 kPa",0.8 ± 0.026 mPa·s
same,viscosity,"303.2 K, 3010 kPa",0.814 ± 0.027 mPa·s
same,viscosity,"303.3 K, 150 kPa",0.788 ± 0.026 mPa·s
same,viscosity,"303.3 K, 2000 kPa",0.808 ± 0.027 mPa·s
same,viscosity,"323.7 K, 1120 kPa",0.617 ± 0.02 mPa·s
same,viscosity,"323.7 K, 1990 kPa",0.628 ± 0.021 mPa·s
same,viscosity,"323.7 K, 3010 kPa",0.625 ± 0.02 mPa·s
same,viscosity,"323.8 K, 140 kPa",0.606 ± 0.02 mPa·s
same,viscosity,"323.8 K, 3960 kPa",0.631 ± 0.021 mPa·s
same,viscosity,"348.9 K, 140 kPa",0.459 ± 0.015 mPa·s
same,viscosity,"348.9 K, 1050 kPa",0.465 ± 0.015 mPa·s
same,viscosity,"348.9 K, 2090 kPa",0.469 ± 0.015 mPa·s
same,viscosity,"348.9 K, 2930 kPa",0.475 ± 0.015 mPa·s
same,viscosity,"348.9 K, 3950 kPa",0.481 ± 0.016 mPa·s
same,viscosity,"373.7 K, 130 kPa",0.365 ± 0.012 mPa·s
same,viscosity,"373.7 K, 960 kPa",0.368 ± 0.012 mPa·s
same,viscosity,"373.7 K, 2040 kPa",0.373 ± 0.012 mPa·s
same,viscosity,"373.7 K, 2890 kPa",0.376 ± 0.012 mPa·s
same,viscosity,"373.7 K, 3960 kPa",0.381 ± 0.013 mPa·s
same,viscosity,"398.1 K, 3940 kPa",0.312 ± 0.01 mPa·s
same,viscosity,"398.2 K, 140 kPa",0.295 ± 0.0097 mPa·s
same,viscosity,"398.2 K, 990 kPa",0.299 ± 0.0097 mPa·s
same,viscosity,"398.2 K, 2030 kPa",0.304 ± 0.0098 mPa·s
same,viscosity,"398.2 K, 2910 kPa",0.309 ± 0.01 mPa·s
same,viscosity,"423.4 K, 2960 kPa",0.254 ± 0.0083 mPa·s
same,viscosity,"423.4 K, 3940 kPa",0.258 ± 0.0084 mPa·s
same,viscosity,"423.5 K, 950 kPa",0.247 ± 0.008 mPa·s
same,viscosity,"423.5 K, 1060 kPa",0.246 ± 0.008 mPa·s
same,viscosity,"423.5 K, 2110 kPa",0.251 ± 0.0081 mPa·s
same,viscosity,"447.7 K, 1060 kPa",0.206 ± 0.0067 mPa·s
same,viscosity,"447.7 K, 1990 kPa",0.209 ± 0.0068 mPa·s
same,viscosity,"447.7 K, 2960 kPa",0.212 ± 0.0069 mPa·s
same,viscosity,"447.7 K, 3990 kPa",0.216 ± 0.007 mPa·s
same,viscosity,"473.4 K, 2150 kPa",0.174 ± 0.0057 mPa·s
same,viscosity,"473.4 K, 2920 kPa",0.177 ± 0.0058 mPa·s
same,viscosity,"473.4 K, 3990 kPa",0.18 ± 0.0059 mPa·s
same,viscosity,"498.2 K, 3890 kPa",0.152 ± 0.005 mPa·s
same,viscosity,"498.3 K, 2090 kPa",0.146 ± 0.0048 mPa·s
same,viscosity,"498.3 K, 3060 kPa",0.15 ± 0.0049 mPa·s
same,viscosity,"523 K, 3970 kPa",0.129 ± 0.0043 mPa·s
same,viscosity,"523.1 K, 1060 kPa",0.118 ± 0.004 mPa·s
same,viscosity,"523.1 K, 1940 kPa",0.122 ± 0.0041 mPa·s
same,viscosity,"523.1 K, 3000 kPa",0.126 ± 0.0042 mPa·s
same,viscosity,"547.9 K, 1070 kPa",0.0957 ± 0.0033 mPa·s
same,viscosity,"547.9 K, 1980 kPa",0.1 ± 0.0034 mPa·s
same,viscosity,"547.9 K, 2940 kPa",0.105 ± 0.0035 mPa·s
same,viscosity,"547.9 K, 4000 kPa",0.108 ± 0.0036 mPa·s
same,viscosity,"573.6 K, 1930 kPa",0.0796 ± 0.0028 mPa·s
same,viscosity,"573.7 K, 2970 kPa",0.0855 ± 0.003 mPa·s
same,viscosity,"573.8 K, 4030 kPa",0.091 ± 0.0031 mPa·s
same,viscosity,"598.4 K, 4020 kPa",0.0745 ± 0.0026 mPa·s
same,viscosity,"598.5 K, 2090 kPa",0.0619 ± 0.0023 mPa·s
same,viscosity,"598.5 K, 2980 kPa",0.0696 ± 0.0025 mPa·s
